Results published in US20160145202A1 (priority 2013, published 2016).

Test system: Septoria tritici
Assay: Glass house trial: control of leaf blotch on wheat caused by Septoria tritici (SEPTTR_P1)
Format: in vivo
Settings: 300 ppm, protective P1, wheat seedlings sprayed to run-off, visually assessed after 4 weeks
Description: The spray solutions were prepared in several steps:
The stock solution was prepared as follows: 0.84 ml of a 1:1 mixture of cyclohexanone and dimethylsulfoxide was added to 16.8 mg of active ingredient. Next, 27.16 ml of a mixture of water, acetone (10%), the emulsifier Wettol (0.1%) and the wetting agent Silwet (0.05%) was added.
This stock solution was then further diluted with the described solvent-emulsifier-water mixture to the desired concentrations. Two different compound applications were used: “protective, P1” and “curative, K1”, where the first means that the compound solution is applied a day before the fungus while the latter represents the opposite ordering.
Control of Leaf Blotch on Wheat Caused by Septoria tritici (SEPTTR_P1)
Leaves of pot-grown wheat seedling were sprayed to run-off with an aqueous suspension of F-1 (300 ppm), prepared as described. The plants were allowed to air-dry. At the following day the plants were inoculated with an aqueous spore suspension of Septoria tritici. Then the trial plants were immediately transferred to a humid chamber at 18-22° C. and a relative humidity close to 100%. After 4 days the plants were transferred to a chamber with 18-22° C. and a relative humidity close to 70%.

## CNC(=O)OCc1cc(/C(C)=N/OCc2cccc(C)n2)ccc1Cl [F-1, [2-chloro-5-[(E)-C-methyl-N-[(6-methyl-2-pyridyl)methoxy]carbonimidoyl]phenyl]methyl N-methylcarbamate]
  extent of fungal attack on the leaves (infection compared to untreated plants): ≤ 30%
